Like-named read-outs stand apart in the source and are kept apart here.
System: NL-RLuc virus
Experiment: Inhibition of HIV replication (NL-RLuc virus, luciferase readout, MT-2 cells)
Type: cell-based
Details: Human immunodeficiency virus 1, MT2, 120 h
Text: Inhibition of HIV Replication:
A recombinant NL-RLuc proviral clone was constructed in which a section of the nef gene from NL4-3 was replaced with the Renilla Luciferase gene. This virus is fully infectious and can undergo multiple cycles of replication in cell culture. In addition, the luciferous reporter provides a simple and easy method for quantitating the extent of virus growth and consequently, the antiviral activity of test compounds. The plasmid pNLRLuc contains the proviral NL-Rluc DNA cloned into pUC18 at the PvuII site. The NL-RLuc virus was prepared by transfection of 293T cells with the plasmid pNLRLuc. Transfections were performed using the LipofectAMINE PLUS kit from Invitrogen (Carlsbad, Calif.) according to the manufacturer and the virus generated was titered in MT-2 cells. For susceptibility analyses, the titrated virus was used to infect MT-2 cells in the presence of compound, and after 5 days of incubation, cells were processed and quantitated for virus growth by the amount of expressed luciferase. Assay media was RPMI 1640 supplemented with 10% heat inactivated fetal bovine serum (FBS), 100 units/ml penicillin G/100 units/ml streptomycin, 10 mM HEPES buffer pH 7.55 and 2 mM L-glutamine. The results from at least 2 experiments were used to calculate the EC50 values. Luciferase was quantitated using the Dual Luciferase kit from Promega (Madison, Wis.). Susceptibility of viruses to compounds was determined by incubation in the presence of serial dilutions of the compound. The 50% effective concentration (EC50) was calculated by using the exponential form of the median effect equation where (Fa)=1/[1+(ED50/drug conc.)^m] (Johnson V A, Byington R T. Infectivity Assay. In Techniques in HIV Research. ed. Aldovini A, Walker B D. 71-76. New York: Stockton Press. 1990). Activity equal to A refers to a compound having an EC50≤100 nM, while B and C denote compounds having an EC50 between 100 nM and luM (B) or >1 uM (C).

Structure (SMILES)	EC50 (read-out: Activity) [µM]	EC50 (read-out: EC50 μM) [µM]
Cc1c([C@H](OC(C)(C)C)C(=O)O)c2n3cc(nc3c1C(C)O)-c1cccc(c1)-c1cc(F)c(F)cc1O[C@@H](C)COCCOC1(C)CCN2CC1 (single isomer, unassigned) [Example 16]	< 0.1	0.002
Cc1cc2nc3cn2c(c1[C@H](OC(C)(C)C)C(=O)O)N1CCC(C)(CC1)OCCOC[C@H](C)Oc1cc(F)c(F)cc1-c1cccc-3c1 [Example 1, (2S)-2-(tert-Butoxy)-2-[(22S)-17,18-difluoro-4,22,28-trimethyl-21,24,27-trioxa-1,7,34-triazahexacyclo[26.2.2.1^6,^9.1^1^0,^1^4.0^2,^7.0^1^5,^2^0]tetratriaconta-2,4,6(34),8,10(33),11,13,15(20),16,18-decaen-3-yl]acetic Acid]	< 0.1	0.001
Cc1c([C@H](OC(C)(C)C)C(=O)O)c2n3cc(nc3c1C)-c1cccc(c1)-c1cc(F)c(F)cc1O[C@@H](C)COCCOC1(C)CCN2CC1 [Example 2, (2S)-2-(tert-Butoxy)-2-[(22S)-17,18-difluoro-4,5,22,28-tetramethyl-21,24,27-trioxa-1,7,34-triazahexacyclo[26.2.2.1^6,^9.1^1^0,^1^4.0^2,^7.0^1^5,^2^0]tetratriaconta-2,4,6(34),8,10(33),11,13,15(20),16,18-decaen-3-yl]acetic Acid]	< 0.1	
Cc1c([C@@H](OC(C)(C)C)C(=O)O)c2n3cc(nc3c1C)-c1cccc(c1)-c1cc(F)c(F)cc1O[C@@H](C)COCCOC1(C)CCN2CC1 [Example 3, (2R)-2-(tert-butoxy)-2-((6S,Z)-44,45-difluoro-14,27,6-trimethyl-5,8,11-trioxa-2(5,2)-imidazo[1,2-a]pyridina-1(1,4)-piperidina-3(1,3),4(1,2)-dibenzenacycloundecaphane-26-yl)acetic Acid]	0.1 to 1	0.305
CCC(C)(C)O[C@H](C(=O)O)c1c(C)c(C)c2nc3cn2c1N1CCC(C)(CC1)OCCOC[C@H](C)Oc1cc(F)c(F)cc1-c1cccc-3c1 [Example 4, (2S)-2-[(22S)-17,18-Difluoro-4,5,22,28-tetramethyl-21,24,27-trioxa-1,7,34-triazahexacyclo[26.2.2.1^6,^9.1^1^0,^1^4.0^2,^7.0^1^5,^2^0]tetratriaconta-2,4,6(34),8,10(33),11,13,15(20),16,18-decaen-3-yl]-2-[(2-methylbutan-2-yl)oxy]acetic Acid]	< 0.1	
Cc1c([C@H](O)C(=O)O)c2n3cc(nc3c1C)-c1cccc(c1)-c1cc(F)c(F)cc1O[C@@H](C)COCCOC1(C)CCN2CC1 [Example 5, (2S)-2-[(22S)-17,18-Difluoro-4,5,22,28-tetramethyl-21,24,27-trioxa-1,7,34-triazahexacyclo[26.2.2.1^6,^9.1^1^0,^1^4.0^2,^7.0^1^5,^2^0]tetratriaconta-2,4,6(34),8,10(33),11,13,15(20),16,18-decaen-3-yl]-2-hydroxyacetic Acid]	0.1 to 1	0.283
Cc1c([C@H](OC(C)(C)C)C(=O)O)c2n3cc(nc3c1CO)-c1cccc(c1)-c1cc(F)c(F)cc1O[C@@H](C)COCCOC1(C)CCN2CC1 [Example 6, (2S)-2-(tert-Butoxy)-2-[(22S)-17,18-difluoro-5-(hydroxymethyl)-4,22,28-trimethyl-21,24,27-trioxa-1,7,34-triazahexacyclo[26.2.2.1^6,^9.1^1^0,^1^4.0^2,^7.0^1^5,^2^0]tetratriaconta-2,4,6(34),8,10(33),11,13,15(20),16,18-decaen-3-yl]acetic Acid]	< 0.1	0.002
Cc1cc2nc3c(Cl)n2c(c1[C@H](OC(C)(C)C)C(=O)O)N1CCC(C)(CC1)OCCOC[C@H](C)Oc1cc(F)c(F)cc1-c1cccc-3c1 [Example 7, (2S)-2-(tert-Butoxy)-2-[(22S)-8-chloro-17,18-difluoro-4,22,28-trimethyl-21,24,27-trioxa-1,7,34-triazahexacyclo[26.2.2.1^6,^9.1^1^0,^1^4.0^2,^7.0^1^5,^2^0]tetratriaconta-2,4,6(34),8,10(33),11,13,15(20),16,18-decaen-3-yl]acetic Acid]	< 0.1	
Cc1c([C@H](OC(C)(C)C)C(=O)O)c2n3c(Cl)c(nc3c1C)-c1cccc(c1)-c1cc(F)c(F)cc1O[C@@H](C)COCCOC1(C)CCN2CC1 [Example 8, (2S)-2-(tert-Butoxy)-2-[(22S)-8-chloro-17,18-difluoro-4,5,22,28-tetramethyl-21,24,27-trioxa-1,7,34-triazahexacyclo[26.2.2.1^6,^9.1^1^0,^1^4.0^2,^7.0^1^5,^2^0]tetratriaconta-2,4,6(34),8,10(33),11,13,15(20),16,18-decaen-3-yl]acetic Acid]	< 0.1	
Cc1c([C@H](OC(C)(C)C)C(=O)O)c2n3c(Cl)c(nc3c1CO)-c1cccc(c1)-c1cc(F)c(F)cc1O[C@@H](C)COCCOC1(C)CCN2CC1 [Example 9, (2S)-2-(tert-Butoxy)-2-[(22S)-8-chloro-17,18-difluoro-5-(hydroxymethyl)-4,22,28-trimethyl-21,24,27-trioxa-1,7,34-triazahexacyclo[26.2.2.1^6,^9.1^1^0,^1^4.0^2,^7.0^1^5,^2^0]tetratriaconta-2,4,6(34),8,10(33),11,13,15(20),16,18-decaen-3-yl]acetic Acid]	< 0.1	
Cc1c([C@H](OC(C)(C)C)C(=O)O)c2n3c(Cl)c(nc3c1Cn1cccn1)-c1cccc(c1)-c1cc(F)c(F)cc1O[C@@H](C)COCCOC1(C)CCN2CC1 [Example 10, (2S)-2-(tert-Butoxy)-2-[(22S)-8-chloro-17,18-difluoro-4,22,28-trimethyl-5-(1H-pyrazol-1-ylmethyl)-21,24,27-trioxa-1,7,34-triazahexacyclo[26.2.2.1^6,^9.1^1^0,^1^4.0^2,^7.0^1^5,^2^0]tetratriaconta-2,4,6(34),8,10(33),11,13,15(20),16,18-decaen-3-yl]acetic acid]	< 0.1	0.005
COCc1c(C)c([C@H](OC(C)(C)C)C(=O)O)c2n3c(Cl)c(nc13)-c1cccc(c1)-c1cc(F)c(F)cc1O[C@@H](C)COCCOC1(C)CCN2CC1 [Example 11, (2S)-2-(tert-Butoxy)-2-[(22S)-8-chloro-17,18-difluoro-5-(methoxymethyl)-4,22,28-trimethyl-21,24,27-trioxa-1,7,34-triazahexacyclo[26.2.2.1^6,^9.1^1^0,^1^4.0^2,^7.0^1^5,^2^0]tetratriaconta-2,4,6(34),8,10(33),11,13,15(20),16,18-decaen-3-yl]acetic Acid]	< 0.1	
Cc1c([C@H](OC(C)(C)C)C(=O)O)c2n3c(Cl)c(nc3c1Cn1ccnn1)-c1cccc(c1)-c1cc(F)c(F)cc1O[C@@H](C)COCCOC1(C)CCN2CC1 [Example 12, (2S)-2-(tert-Butoxy)-2-[(22S)-8-chloro-17,18-difluoro-4,22,28-trimethyl-5-(1H-1,2,3-triazol-1-ylmethyl)-21,24,27-trioxa-1,7,34-triazahexacyclo[26.2.2.1^6,^9.1^1^0,^1^4.0^2,^7.0^1^5,^2^0]tetratriaconta-2,4,6(34),8,10(33),11,13,15(20),16,18-decaen-3-yl]acetic Acid]	< 0.1	0.012
Cc1c([C@H](OC(C)(C)C)C(=O)O)c2n3c(Cl)c(nc3c1Cn1nccn1)-c1cccc(c1)-c1cc(F)c(F)cc1O[C@@H](C)COCCOC1(C)CCN2CC1 [Example 13, (2S)-2-(tert-butoxy)-2-[(22S)-8-chloro-17,18-difluoro-4,22,28-trimethyl-5-(2H-1,2,3-triazol-2-ylmethyl)-21,24,27-trioxa-1,7,34-triazahexacyclo[26.2.2.1^6,^9.1^1^0,^1^4.0^2,^7.0^1^5,^2^0]tetratriaconta-2,4,6(34),8,10(33),11,13,15(20),16,18-decaen-3-yl]acetic Acid]	< 0.1	
C=C(C)c1c(C)c([C@H](OC(C)(C)C)C(=O)O)c2n3cc(nc13)-c1cccc(c1)-c1cc(F)c(F)cc1O[C@@H](C)COCCOC1(C)CCN2CC1 [Example 14, (2S)-2-(tert-Butoxy)-2-[(22S)-17,18-difluoro-4,22,28-trimethyl-5-(prop-1-en-2-yl)-21,24,27-trioxa-1,7,34-triazahexacyclo[26.2.2.1^6,^9.1^1^0,^1^4.0^2,^7.0^1^5,^2^0]tetratriaconta-2,4,6(34),8,10(33),11,13,15(20),16,18-decaen-3-yl]acetic Acid]	< 0.1	
Cc1c([C@H](OC(C)(C)C)C(=O)O)c2n3c(C)c(nc3c1C)-c1cccc(c1)-c1cc(F)c(F)cc1O[C@@H](C)COCCOC1(C)CCN2CC1 [Example 15, (2S)-2-(tert-Butoxy)-2-[(22S)-17,18-difluoro-4,5,8,22,28-pentamethyl-21,24,27-trioxa-1,7,34-triazahexacyclo[26.2.2.1^6,^9.1^1^0,^1^4.0^2,^7.0^1^5,^2^0]tetratriaconta-2,4,6(34),8,10(33),11,13,15(20),16,18-decaen-3-yl]acetic Acid]	< 0.1	

Source: US10138253B2, “Imidazopyridine macrocycles as inhibitors of human immunodeficiency virus replication” (priority 2015, dated 2018)
